pIC50: −log10 of the molar value.
Assays:
HIV-1 integrase = biological target: T1, HIV-1 integrase (Human immunodeficiency virus type 1 group M subtype B, UniProt P04585); assay: HIV Integrase Substrate Cleavage and Integration Assay (trimming of the 3' end of HIV long terminal repeat terminus); format: biochemical; settings: inhibition of HIV integrase substrate cleavage; inhibitor 0.1 to 100 μM
T1 construct: HIV-1 integrase
Description: HIV Integrase Substrate Cleavage and Integration Assay
An assay for trimming of the 3' end of HIV long terminal repeat terminus by HIV-1 integrase was conducted according to LaFemina, R. L. et al., J. Virol 10, 5624 (1991), herein incorporated by reference for these purposes. To assay inhibition of HIV integrase substrate cleavage, the reaction was conducted with inhibitor having various concentrations in the range of 0.1 to 100 μM.

[1] = biological target: T2, HIV Integrase/donor (HIV) DNA complexes (Human immunodeficiency virus type 1 group M subtype B, UniProt P04585); assay: Assay for Assembly of HIV Integrase/donor (HIV) DNA Complexes; settings: inhibition of assembly or binding to immobilized donor (HIV) DNA; inhibitor 0.1 to 100 μM
T2 construct: strand transfer by HIV integrase
Description: Assay for Assembly of HIV Integrase/donor (HIV) DNA Complexes
An assay measuring the binding of HIV Integrase to immobilized donor (HIV) DNA was conducted according to Wolfe, A. L. et al., J. Virol. 70, 1424 (1996), herein incorporated by reference for these purposes. To assay inhibition of such assembly or binding, the reaction was conducted with inhibitor having various concentrations in the range of 0.1 to 100 μM. Results follow.

HIV integrase = biological target: T3, HIV integrase (Human immunodeficiency virus type 1 group M subtype B, UniProt P04585); assay: Strand Transfer Assay for HIV Integrase (ligation of processed donor (HIV) DNA to nicked host DNA); format: biochemical; settings: inhibition of strand transfer; inhibitor 0.1 to 100 μM
T3 construct: strand transfer by HIV integrase
Description: Strand Transfer Assay for HIV Integrase
A microtiter assay for ligation of processed donor (HIV) DNA to unspecific, nicked host DNA was conducted according to Hazuda, D. J. et al., Nucl. Acids, Res. 22, 1121 (1994), herein incorporated by reference for these purposes. To assay inhibition of such strand transfer by HIV integrase, the reaction was conducted with inhibition having various concentrations in the range of 0.1 to 100 μM.

C=C(C=O)C1CC2(C)C(=CC1=O)C(OC(=O)C(C)=CC(C)CCCC)CCC2C(=O)O (stereo not drawn) [Compound A]
pIC50 (HIV-1 integrase): 5.00 to 5.30 | pIC50 [1]: 5.00 | pIC50 (HIV integrase): 5.00 to 5.30
